In patent US20070020747A1, “Composition for eliminating ethidium bromide and use thereof” (priority 2005, published 2007):

Experiments:
[1] = UV examination of EtBr elimination by oxidants in glass bottles (Example 1); settings: for EtBr cleaning effect: oxidant 500 mM, not illuminated with UV; for EtBr cleaning effect / EtBr-eliminating effect (fluorescence): 60 min; for elimination of EtBr in solution (fluorescence): oxidant 20 or 500 mM, illuminated with UV for 60 minutes, groups 1-3
Method: 5M lithium nitrate (LiNO3), 5M sodium nitrite (NaNO2), and 5 µg/ml EtBr solutions were prepared.
7 glass bottles (about 7 ml of capacity) were prepared with solutions as described in Table 1. The bottle 1 was added 4 μl LiNO3 and 996 μl EtBr, wherein the final concentration of LiNO3 was 20 mM. The bottle 2 was added 100 μl LiNO3 and 900 μl EtBr, wherein the final concentration of LiNO3 was 500 mM. The bottle 3 was added 4 μl NaNO2 and 996 μl EtBr, wherein the final concentration of NaNO2 was 20 mM. The bottle 4 was added 100 μl NaNO2 and 900 μl EtBr, wherein the final concentration of NaNO2 was 500 mM. The bottle 5 was added 1 ml EtBr only. The bottle 6 was added 100 μl LiNO3 and 900 μl EtBr. The bottle 7 was added 100 μl NaNO2 and 900 μl EtBr.
The bottles 1-5 were illuminated with ultraviolet, which was 8 W and the wavelength was 180-280 nm. The samples were collected in the time point 0 and 60 minutes. The bottles 6 and 7 were not illuminated with ultraviolet and the samples were collected in the time point 60 minutes.
Except the wavelength of UV was changed to 280˜320 nm, all conditions were identical to group 1.
Except the wavelength of UV was changed to 320˜380 nm, all conditions were identical to group 1.
Each sample was collected 25 μl from the experimental bottle in the selected time point. There were 12 samples for each group, total 36 samples. These samples were dropped on the center of a filter paper (diameter 2.5 cm) and illuminated with UV to observe the elimination of EtBr.

[2] = UV examination of EtBr elimination by oxidants in beakers under a four-tube UV lid (Example 2); settings: oxidant 50 mM
Method: The appearance of the light source was a rectangular lid and the size was 35 cm×21 cm×15 cm. Four parallel 8 W UV tubes were implanted on the top of the lid.
5 beakers were prepared. Beaker 1 and 2 were added 100 μl LiNO3 and 9.9 ml EtBr, so that the final concentration of LiNO3 was 50 mM. Beaker 3 and 4 were added 100 μl NaNO2 and 9.9 ml EtBr, so that the final concentration of NaNO2 was 50 mM. Beaker 5 was added 10 ml EtBr only. The beakers 1, 3 and 5 were illuminated with UV, and the samples were collected in the time points 0, 15, 30, 60 and 120 minutes. The beakers 2 and 4 were not illuminated with UV, and the samples were collected in the time point 120 minutes.
Each sample was collected 25 μl from the experimental beaker in the selected time point. There were 17 samples totally. These samples were dropped on the center of a filter paper (diameter 2.5 cm) and illuminated with UV to observe the elimination of EtBr.

[3] = oxidant plus UV with wavelength 180~280 nm, 8 W
[4] = oxidant plus UV with wavelength 320~380 nm
[5] = oxidant plus UV, second wavelength printed as 180~280 nm (group 2: 280~320 nm)
[6] = after 60 minutes of UV illumination
[7] = after illuminating with UV for 15 minutes

SMILES | EtBr cleaning effect [1] | elimination of EtBr in solution (fluorescence) [1] | EtBr-eliminating effect (fluorescence) [1, 3] | EtBr-eliminating effect (fluorescence) [1, 4] | EtBr-eliminating effect (fluorescence) [1, 5] | destruction of EtBr (fluorescence) [2, 6] | destruction of EtBr (fluorescence) [2, 7] | destruction of EtBr (fluorescence) ([2]; no UV illumination, 120 min)
O=[N+]([O-])[O-].[Li+] [lithium nitrate] | no or insignificant EtBr cleaning effect | completely destroyed | strongest effect | less effective | modest effect | almost all of EtBr in the samples were destroyed | most EtBr | not destroyed (or insignificantly destroyed)
O=NO [sodium nitrite] | no or insignificant EtBr cleaning effect | completely destroyed | strongest effect | less effective | modest effect | almost all of EtBr in the samples were destroyed | most EtBr | not destroyed (or insignificantly destroyed)
